Results on 6 sequences are retold here after publication PMC4780071, “Discovery of a Biological Mechanism of Active Transport through the Tympanic Membrane to the Middle Ear” (Scientific Reports, 2016).

For assay [1], the system named is tympanic membrane (TM) of rats with active bacterial OM. Kind of assay: Comparative TM transit of individual phage clones in vivo (plaque assay of ME fluid). On the set-up: species or system rat (male Sprague-Dawley), NTHi-induced OM. Particulars: for phage particles in the ME after 1 hr incubation of the peptide-phage on the TM: 10^10 PFUs applied, mean of six animals; for TM-transit rate into the ME compared with WT phage and the other clones: phage clone displaying the peptide, 1 × 10^10 phage particles on one TM for 1 hr, six rats, plaque assay of ME fluid. On the procedure:
(§1) All animal experiments were performed in strict accordance to the Guide for the Care and Use of Laboratory Animals of the National Institutes of Health (NIH) and the policies of the Veterans Affairs San Diego Healthcare Systems, CA. Experiments were carried out in strict accordance with an approved Institutional Animal Care and Use Committee (IACUC) protocol. Male Sprague–Dawley rats were purchased from The Jackson Laboratory. The animals were anesthetized with an intraperitoneal injection of 1.0–1.5 ml per 200–300 g bodyweight of rodent cocktail (40 mg/Kg Ketamine, 10 mg/Kg Xylasine, and 0.75 mg/Kg Acepromazine). The skin of the neck was shaved and treated with Povidone antiseptic solution. OM was induced by infecting the ME with nontypeable Haemophilus influenzae (NTHi) in a laboratory setting by surgically exposing the bulla via a ventral approach through a vertical midline incision made in the neck. A 25-gauge needle was used to fenestrate the bulla and inject ~50 μL saline solution containing 10^4 CFU/mL NTHi bacteria strain 3655 (biotype II, originally isolated from the ME of a pediatric OM patient). Following the inoculation, the opening was closed and incision was stapled. The TMs were visually confirmed to be intact after surgery and the rats were given Lactated Ringer’s solution and buprenorphine subcutaneously postoperatively. For in vivo phage display experiments, rats were used at two days post NTHi inoculation. The ears were examined otoscopically at this time to confirm signs of active infection and the presence of fluid in the ME cavity.
After three or ten rounds of subtraction/selection in strategies 1 and 2 respectively, single blue plaques were selected at random for preparation of purified stocks and sequencing as recommended by the manufacturer (New England Biolabs, Cambridge, MA, USA). Phage transit efficiency was determined by incubating 1 × 10^10 PFUs (plaque-forming units) of specific phage over the TMs of rats in vivo for 1 hr. At least six animals per time point were used. Incubation, washings, and elution conditions were performed as above. The phage transiting efficiency was determined by comparing the number of plaque-forming phage recovered from the ME fluid (output) by the number of plaque-forming phage in the input (TM side).
We quantified the rate of TM transit into the ME for all peptides identified by Strategy 1 (Fig. 3A) and those from Strategy 2 (Fig. 3B) that appeared at a frequency of three or more in our sequenced sample (Tables 1 and 2). Individual phage clones were amplified and 1 × 10^10 phage particles were applied onto one TM of six anesthetized rats for 1 hr. The number of phage particles recovered from the ME was then compared to that observed for WT (untargeted) phage. […] On the other hand, the peptide sequence of BPT-4 was clearly distinct in the phylogeny analysis.

The test system of assay [2] is tympanic membrane (TM) of rats with OM. Kind of assay: Transport kinetics and saturation of TMT-3 phage in vivo. Details: species or system rat (male Sprague-Dawley), NTHi-induced OM. Particulars: for phage recovery from the ME: at least six animals per time point. On the procedure: as §1
The phage peptide with one of the highest transport capacities measured above TMT-3 SADSTKTTHLTL, was selected for further transport specificity, kinetics and competitive binding assays. To evaluate the kinetics of transport of the TMT-3 single phage clone, a TMT-3 phage preparation was incubated on the TM over a 1, 2 or 4 hr time period at 1 × 10^10 PFU concentration. At least six animals per time point were used. Incubation, washing, and elution conditions were performed as above in rats with OM. The level of phage transport was evaluated by determining the titer (PFUs) of TMT-3 phage present in the ME fluid. To assess transport saturation, the recovery of TMT-3 phage from the ME was compared following application of 10^10 versus 10^12 phage particles to the TM for 1 hr. The corresponding free peptide SHSADSTKTTHLTLGGG was synthesized by Genscript (Piscataway, NJ, USA) in addition to an untargeted randomized control peptide SHDLSTSATLTHTKGGG (Genscript, Piscataway, NJ, USA) at purity >95%. All peptides were reconstituted in PBS pH, 7.2. For the competition assay TMT-3 phage application to the TM was performed at titer of 10^10 PFUs, as above. However, 1 μM of free peptide was included with the phage.

Assay [3] concerns healthy (uninfected) tympanic membrane. As to the kind of experiment: TMT-3 phage transport across TMs of uninfected MEs. It counts as in vivo, rat. Conditions: n = 6, data not shown. An excerpt:
To establish the specificity of translocation, we assessed whether a synthetic TMT-3 peptide would interfere with internalization of corresponding peptide-bearing phage into the ME. […] In addition, TMT-3 phage was applied onto the TMs of uninfected MEs (n = 6). We observed that for healthy TMs, phage transport into the ME was quite limited when compared to the infected TM (data not shown). This could be attributed to limitations in efficient phage transport when fluid is not present on the other side of the TM. Alternatively, it is possible that the transit mechanism employed is only present in infected TMs.

Assay [4] concerns TMs of ex vivo MEs from rats undergoing OM. As to the kind of experiment: Ex vivo ME transport: dependence on time after death and temperature. On the set-up: species or system rat. Particulars: for phage recovery through ex vivo TMs: warmed to 37 °C, 1 hr with phage. As for the experimental part:
In order to learn more about the pharmacokinetics mechanisms of transport, we tested the effect of varying metabolism or temperature on transport rates. […] MEs were removed intact from deeply anesthetized rats undergoing OM as described above. […] Translocation is also temperature dependent. […] It is well known that endocytosis is inhibited at 4 °C[36][37].

Take DVGAGRWFSDNG [TMT-4]: in assay [1] (1 hr, rats with OM), the “phage particles in the ME after 1 hr incubation of the peptide-phage on the TM” value (shortened to “phage particles in the ME”) was “more than 2 × 10^3 phage particles”. For the same sequence, in assay [1], the “TM-transit rate into the ME compared with WT phage and the other clones” value is on record as “highest rates of transport”.
Turning to “SADSTKTTHLTL [TMT-3, transport tests used the phage clone]”, the “phage particles in the ME” value in assay [1] (1 hr, rats with OM) was “more than 2 × 10^3 phage particles”. For the same sequence, in assay [1] (10^10 PFUs, 1 hr, rats with OM), the “recovery from the ME among the six positive phage clones” value is recorded as “greatest recovery from the ME”. Further, the “TM-transit rate into the ME compared with WT phage and the other clones” value in assay [1] is reported as “highest rates of transport”. In addition, in assay [2] (1, 2 and 4 hrs of contact with the infected TM, 1 × 10^10 PFU), the “dependence of phage recovery on time on the TM” value was “exponential increase”. In assay [2] (10^10 versus 10^12 phage particles applied to the TM for 1 hr), the “dependence of phage recovery on the amount applied (saturation)” value is listed as “increased proportionally with concentration”. Further, the “phage recovery from the ME” value in assay [2] (1 hr of contact with the infected TM, 1 × 10^10 PFU) is “approximately 10^4 phage particles”; in assay [2] (4 hrs of contact with the infected TM, 1 × 10^10 PFU), ~10^6 phage particles. In addition, in assay [3], the “phage transport into the ME through healthy TMs compared to the infected TM” value is listed as “quite limited”. Besides, the “ME recovery of phage ex vivo” value in assay [4] (4 °C, 1 hr exposure of the TM to 10^10 PFUs) is reported as “severely compromised”. The “phage recovery through ex vivo TMs” value in assay [4] (TMs stored 12 hrs postmortem at 4 °C) and in assay [4] (TMs stored 24 hrs postmortem at 4 °C) was “No recovery” in each case.
In the case of SDDSRPIAQFAI [TMT-5], the “TM-transit rate into the ME compared with WT phage and the other clones” value in assay [1] is recorded as “highest rates of transport”.
TFNPPPPQMPST [BPT-4]: the “phage particles in the ME” value in assay [1] (1 hr, rats with OM) was “more than 2 × 10^3 phage particles”. The “TM-transit rate into the ME compared with WT phage and the other clones” value in assay [1] is listed as “highest rates of transport”.
As to THPSTKVPGTPA [BPT-3], the “phage particles in the ME” value in assay [1] (1 hr, rats with OM) is listed as “more than 2 × 10^3 phage particles”. Besides, the “TM-transit rate into the ME compared with WT phage and the other clones” value in assay [1] was “highest rates of transport”.
The matching figures for TLSPKMPGGGYW [TMT-2]: “more than 2 × 10^3 phage particles” and “highest rates of transport”.
